From patent US6869797B2, “Method for more efficient electroporation” (Stratagene California, priority 1998, dated 2005)

Experiments:
E. coli = experiment: Effect of additives added to thawed competent cells on electroporation efficiency (pCMV-Script plasmid); assay type: cell-based; settings: added after thawing, colonies with additive divided by colonies without
Experimental: Specifically, galactose (an aldohexose monosaccharide), maltose (an aldohexose disaccharide), mannitol (an aldohexose alcohol), and sorbitol (an aldohexose alcohol) additives were tested.
After two hours of freezing, competent cells were thawed and amounts varying between 0.1% and 5.0% of various sugar or sugar aldoses were added to the thawed cells. 1 μl of 10 pg/μl plasmid, pCMV-Script (Stratagene #211199) in TE buffer or water (or other low-ionic strength buffer) was added to 40 μl of the treated cells in a chilled 1.5 ml Microfuge tube. The cells were gently mixed and chilled.
The DNA-cell mixture was transferred to a chilled electroporation cuvette. The cuvette was pulsed once, using a Bio-Rad II Gene Pulsar, at 1.7 kV (kilo Volts), 200 Ω and 25 μF. The cuvette was immediately removed and 960 μl of SOC medium (2 ml of 20% glucose and 1 ml of 2M Mg per 100 ml of SOB medium) was added to resuspend the cells.
That suspension was transferred to a sterile 15-ml Falcon 2059 polypropylene tube and shaken at 225-250 rpm at 37° C. for 1 hour. We pipetted 2.5 μl of transformed cells into a 100 μl pool of SOC medium on an Amp plate (Sambrook et al. 1997). The cell/media mixture was spread over the Amp plates. The plates were incubated overnight (16-20 hours) at 37° C.

XL1-Blue cells = experiment: Effect of sorbitol added before freezing on electrotransformation efficiency (pUC18 plasmid); assay type: cell-based, E. coli; settings: average of 6 values
Experimental: The effect of adding sugars, prior to freezing the cells, was tested for improved electroporation efficiency. Sorbitol was chosen as the first test compound.
To determine the optimal concentration of sorbitol, the above protocol was followed to produce electrocompetent bacterial cells. However, before freezing the cells, a solution of sorbitol was added such that the final concentrations of the suspension of cells varied from 0%, 1.0%, 2.0%, and 2.5%.
1 μl of 10 pg/μl plasmid, pUC18 (New England Biolabs) in TE buffer or water (or other low-ionic strength buffer), was added to 40 μl of the treated cells in a chilled 1.5 ml Microfuge tube. Transformed cells were obtained by following the above protocol. Various experiments were run to determine the efficiency of transformation. Five different preparations were tested in triplicate, and each preparation was plated in duplicate.

[1] = additive final concentration 0.75%
[2] = additive final concentration 1.0%
[3] = additive final concentration 2.0%

Q: For `OC[C@@H](O)[C@@H](O)[C@H](O)[C@@H](O)CO` [sorbitol], which Relative efficiency (E. coli; [1]) is on record?
A: 2.20

Q: And the Relative efficiency (E. coli; [2])?
A: 2.80

Q: And the Relative efficiency (E. coli; additive final concentration 1.50%)?
A: 3.10

Q: What about the Relative efficiency (E. coli; [3]) of the same molecule?
A: 1.50

Q: What about the “Efficiency (cfu/ug pUC18)” value (XL1-Blue cells; Experiment #1, 2.0% sorbitol added before freezing) of the same molecule?
A: 1.2 × 10^10 cfu/ug pUC18

Q: What about the “Efficiency (cfu/ug pUC18)” value (XL1-Blue cells; Experiment #1, 2.5% sorbitol added before freezing) of the same molecule?
A: 1.6 × 10^10 cfu/ug pUC18

Q: What about the “Efficiency (cfu/ug pUC18)” value (XL1-Blue cells; Experiment #2, 1.0% sorbitol added before freezing) of the same molecule?
A: 1.23 × 10^10 cfu/ug pUC18

Q: And the “Efficiency (cfu/ug pUC18)” value (XL1-Blue cells; Experiment #2, 2.0% sorbitol added before freezing)?
A: 1.66 × 10^10 cfu/ug pUC18

Q: What about the “Efficiency (cfu/ug pUC18)” value (XL1-Blue cells; Experiment #2, 2.5% sorbitol added before freezing) of the same molecule?
A: 1.48 × 10^10 cfu/ug pUC18

Q: And the “Efficiency (cfu/ug pUC18)” value (XL1-Blue cells; Experiment #3, 1.0% sorbitol added before freezing)?
A: 1.03 × 10^10 cfu/ug pUC18

Q: What about the “Efficiency (cfu/ug pUC18)” value (XL1-Blue cells; Experiment #3, 2.0% sorbitol added before freezing) of the same molecule?
A: 1.23 × 10^10 cfu/ug pUC18

Q: What about the “Efficiency (cfu/ug pUC18)” value (XL1-Blue cells; Experiment #3, 2.5% sorbitol added before freezing) of the same molecule?
A: 1.33 × 10^10 cfu/ug pUC18

Q: And the “Efficiency (cfu/ug pUC18)” value (XL1-Blue cells; Experiment #4, 2.0% sorbitol added before freezing)?
A: 1.29 × 10^10 cfu/ug pUC18

Q: What about the “Efficiency (cfu/ug pUC18)” value (XL1-Blue cells; Experiment #4, 2.5% sorbitol added before freezing) of the same molecule?
A: 1.39 × 10^10 cfu/ug pUC18

Q: And the “Efficiency (cfu/ug pUC18)” value (XL1-Blue cells; Experiment #5, 2.0% sorbitol added before freezing)?
A: 1.60 × 10^10 cfu/ug pUC18

Q: What about the “Efficiency (cfu/ug pUC18)” value (XL1-Blue cells; Experiment #5, 2.5% sorbitol added before freezing) of the same molecule?
A: 1.60 × 10^10 cfu/ug pUC18

Q: How did the Relative efficiency (E. coli; additive final concentration 0.5%) turn out when `O=C[C@H](O)[C@@H](O)[C@@H](O)[C@H](O)CO` [galactose] was run?
A: 2.20

Q: And the Relative efficiency (E. coli; [2])?
A: 1.50

Q: And the Relative efficiency (E. coli; [3])?
A: 2.40

Q: How did the Relative efficiency (E. coli; [1]) turn out when `OC[C@@H](O)[C@@H](O)[C@H](O)[C@H](O)CO` [mannitol] was run?
A: 3.00

Q: What about the Relative efficiency (E. coli; [2]) of the same molecule?
A: 2.80

Q: What about the Relative efficiency (E. coli; additive final concentration 1.25%) of the same molecule?
A: 3.30

Q: What about the Relative efficiency (E. coli; [3]) of the same molecule?
A: 2.90

Q: And the Relative efficiency (E. coli; additive final concentration 2.20%)?
A: 2.80

Q: What about the Relative efficiency (E. coli; additive final concentration 2.40%) of the same molecule?
A: 1.90

Q: `OC[C@H]1O[C@H](O[C@H]2[C@H](O)[C@@H](O)C(O)O[C@@H]2CO)[C@H](O)[C@@H](O)[C@@H]1O` (mixture of isomers) [maltose] was tested. Which Relative efficiency (E. coli; [2]) did it give?
A: 1.50

Q: And the Relative efficiency (E. coli; additive final concentration 2.5%)?
A: 3.00

Q: And the Relative efficiency (E. coli; additive final concentration 3.0%)?
A: 1.30

Q: What about the Relative efficiency (E. coli; additive final concentration 4.0%) of the same molecule?
A: 1.50
